Consider 5 molecules from US20040255959A1, “Method and compounds to decrease the incidence of atrial fibrillation (AF) in patients with left ventricular dysfunction” (priority 2003, published 2004).

Assay [1] deals with atrial refractory period during rapid atrial pacing. To be noted: in vivo; cited from earlier work.
Assay [2] has as its system patients shortly after an acute myocardial infarction with depressed LV function. To be noted: trandolapril versus placebo, 2-4 years of follow-up in TRACE; cited from earlier work.
Assay [3] concerns patients with persistent AF. Conditions: started 3 weeks before electrical cardioversion and combined with amiodarone; cited from earlier work.
Assay [4] concerns patients with left ventricular dysfunction. The assay is described as follows: Retrospective analysis of Montreal Heart Institute patients randomized in SOLVD: development of atrial fibrillation, enalapril versus placebo. The assay is classed as in vivo, human. The text has this: The patients of the Montreal Heart Institute who were enrolled in the SOLVD trials constituted the study population. SOLVD was a multicenter, double-blinded, randomized, placebo-controlled trial which evaluated the effect of the ACEi enalapril on survival in patients with left ventricular (LV) dysfunction (ejection fraction≦35%).^12,13 The design of the study has been reported previously.^13 Briefly, from June 1986 to August 1991, 4228 patients with asymptomatic or mildly symptomatic (not requiring treatment with digitalis, diuretics or vasodilators for heart failure at study entry) LV dysfunction (LVEF≦0.35) were included in the prevention trial and 2569 patients with overt congestive HF in the treatment trial.^14 Patients were randomized to enalapril (5-20 mg/day) or placebo. Exclusion criteria included: age>80 years, unstable angina, myocardial infarction in the previous month, severe pulmonary disease, renal insufficiency (creatinine level>[…]), current ACEi use or intolerance to ACEi. Follow-up visits were scheduled 2 and 6 weeks after randomization and every 4 months until the end of the study, for a mean follow-up of 3.4 and 3.1 years for the treatment and prevention trials, respectively.
Baseline characteristics, past medical history and drug therapy at the time of enrolment were obtained from the SOLVD databases. Serial electrocardiograms (ECG) were not collected specifically for the SOLVD trials. However, the routine clinical follow-up of patients at our institution usually included a 12-lead ECG. Thus, the medical file of each patient was carefully reviewed and a single experienced cardiologist, blinded to treatment allocation, interpreted every ECG.
AF was defined as rapid oscillations or fibrillatory waves that vary in size, shape and timing, associated with an irregular, frequently rapid ventricular response. For the purposes of the study, paroxysmal AF was defined as episodes in which the patient reverted to sinus rhythm spontaneously, with medical therapy orwith a single cardioversion, whereas patients who remained in AF despite changes in medical therapy and/or cardioversion were defined as persistent AF. Episodes occurring during a 24-hour Holter monitoring were also considered. The end-points were the development and time to first occurrence of AF on either one 12-lead ECG and/or a 24-hour Holter monitoring recorded during any available follow-up visits (including research, outpatient clinic or emergency room visits). Participants with significant supraventricular arrhythmia on the baseline ECG (AF or flutter) were excluded. Patients with a history of arrhythmia (either supraventricular or ventricular) but who were in sinus rhythm on the ECG at the time of randomization were included.
The baseline characteristics of the two groups were compared using student t-test for continuous variables and chi-square test for categorical variables. The incidence of AF between the two groups was compared with the chi-square test. Time to the first occurrence of AF during the follow-up was analyzed with Kaplan-Meier curves and compared with the log-rank test. To analyze the effect of enalapril on development of AF, a Cox regression analysis was used to take into account the effect of potential confounding baseline variables (age, sex, NYHA class, history of supraventricular or ventricular arrhythmia, ischemic etiology, diabetes and ejection fraction) and time-dependent variables (systolic blood pressure, diastolic blood pressure, pulse pressure, serum potassium and drug therapy). Cox proportional-hazard models were performed for each variable with treatment (enalapril) forced in all models. Variables with a p-value≦0.2 were included in a multivariate Cox proportional hazard model.
Subgroup analysis was conducted with chi-square test. Preliminary assumptions were verified prior to all analysis. A p-value≦0.05 was considered statistically significant. […]

For assay [5], the system named is animals with HF induced by rapid ventricular pacing. Conditions: given at the onset of pacing, animals followed for 5 weeks; cited from earlier work.
[6] abbreviates: patients with AF in enalapril group, n = 10.

`CCOc1nc2cccc(C(=O)O)c2n1Cc1ccc(-c2ccccc2-c2nnn[nH]2)cc1` [candesartan]: in assay [1], the “shortening of the atrial refractory period during rapid atrial pacing” value is “prevented”.
Consider `C[C@H](CS)C(=O)N1CCC[C@H]1C(=O)O` [captopril], for which the “shortening of the atrial refractory period during rapid atrial pacing” value in assay [1] is given as “prevented”.
`CCOC(=O)[C@H](CCc1ccccc1)N[C@@H](C)C(=O)N1[C@H](C(=O)O)C[C@H]2CCCC[C@@H]21` [trandolapril]: the “absolute risk reduction on the incidence of AF” value in assay [2] was 2.5%.
For the molecule `CCCCC1=NC2(CCCC2)C(=O)N1Cc1ccc(-c2ccccc2-c2nnn[nH]2)cc1` [irbesartan], in assay [3], the “effect on AF recurrence” value is reported as “beneficial effect”.
For `CCOC(=O)[C@H](CCc1ccccc1)N[C@@H](C)C(=O)N1CCC[C@H]1C(=O)O` [enalapril], the “patients presenting ≥1 episode of AF” value in assay [4] (2.9 years of follow-up, enalapril group n = 186, 5-20 mg/day, placebo 45) stood at 10 patients. Further, the “patients presenting ≥1 episode of AF (percentage)” value in assay [4] (2.9 years of follow-up, enalapril group n = 186, placebo 24%, p<0.001) was 5.4%. Further, the “probability of remaining in sinus rhythm during follow-up” value in assay [4] (Kaplan-Meier, enalapril versus placebo, p<0.0001, FIG. 1) is “significantly higher”. For the same molecule, the “Hazard ratio for incidence of AF, Cox multivariate analysis” value in assay [4] (allocation to enalapril, 95% CI 0.11-0.44, p<0.0001) was found to be 0.22. For the same molecule, the “risk of developing AF in patients with LV dysfunction” value in assay [4] (chronic ACEi therapy with enalapril) is “markedly reduces”. Further, the “absolute risk reduction of AF” value in assay [4] (enalapril versus placebo, 2.9 years of follow-up) is given as 18.6%. Moreover, the “patients developing AF (percentage), patients with a history of supraventricular arrhythmia excluded” value in assay [4] (n=21 excluded, placebo 23%, p<0.0001) was 4.5%. Moreover, the “patients developing AF, patients with a history of supraventricular arrhythmia excluded” value in assay [4] (n=21 excluded, placebo 40 patients) is listed as 8 patients. Also, in assay [4] (setting [6]), the “AF Detection: 12-leads ECG (number)” value is reported as 10, the “AF Detection: 12-leads ECG (percentage)” value was found to be 100%, the “AF Detection: Holter monitoring (number)” value is 0 (0%) and the “AF Detection: Holter monitoring (percentage)” value is 0 (0%). In assay [4] (setting [6]), the “AF Requiring: electrical cardioversion (number)” value amounted to 1, the “AF Requiring: electrical cardioversion (percentage)” value stood at 10%, the “AF Requiring: hospitalization (number)” value was 8 and the “AF Requiring: hospitalization (percentage)” value amounted to 80%. Besides, in assay [4] (setting [6]), the “Paroxysmal AF (number)” value came out at 8, the “Paroxysmal AF (percentage)” value stood at 80%, the “Persistent AF (number)” value is 2 and the “Persistent AF (percentage)” value is 20%. For the same molecule, the “patients developing AF, SOLVD prevention arm” value in assay [4] (prevention arm (251 patients), placebo 31 patients) was 4 patients. The “patients developing AF (percentage), SOLVD prevention arm” value in assay [4] (prevention arm, placebo 24.6%, p<0.0001) turned out to be 3.2%. Further, the “patients with CHF needed to be treated to prevent one episode of AF” value in assay [4] (treated for 2.9 years) was found to be 5 patients. Further, the “patients developing AF, SOLVD treatment arm” value in assay [4] (treatment arm (123 patients), placebo 14) was found to be 6 patients. Besides, in assay [4] (treatment arm, placebo 22.6%, P=0.055), the “patients developing AF (percentage), SOLVD treatment arm” value came to 9.8%. In assay [5], the atrial fibrosis entry was “significant reduction”, the “atrial structural changes in HF induced by rapid ventricular pacing” value was “attenuated” and the “vulnerability of the animals to AF” value was “decreased vulnerability”.
